IC50 data for 12 compounds are collected here from patent publication US20250340560A1, “SUBSTITUTED PYRAZOLO[1,5-a]PYRIMIDINES AS BRUTON'S TYROSINE KINASE MODULATORS” (BEIGENE SWITZERLAND GMBH, priority 2013, published 2025).

The structures appear in SMILES notation.

This assay deals with Recombinant Btk (Homo sapiens (Human), UniProt Q06187). Briefly: BTK kinase assay (TR-FRET). Conditions: read-out: IC50 (nM) Btk; 1 hour pre-incubation, ATP at Km.
Sequence of Recombinant Btk (Q06187 whole entry): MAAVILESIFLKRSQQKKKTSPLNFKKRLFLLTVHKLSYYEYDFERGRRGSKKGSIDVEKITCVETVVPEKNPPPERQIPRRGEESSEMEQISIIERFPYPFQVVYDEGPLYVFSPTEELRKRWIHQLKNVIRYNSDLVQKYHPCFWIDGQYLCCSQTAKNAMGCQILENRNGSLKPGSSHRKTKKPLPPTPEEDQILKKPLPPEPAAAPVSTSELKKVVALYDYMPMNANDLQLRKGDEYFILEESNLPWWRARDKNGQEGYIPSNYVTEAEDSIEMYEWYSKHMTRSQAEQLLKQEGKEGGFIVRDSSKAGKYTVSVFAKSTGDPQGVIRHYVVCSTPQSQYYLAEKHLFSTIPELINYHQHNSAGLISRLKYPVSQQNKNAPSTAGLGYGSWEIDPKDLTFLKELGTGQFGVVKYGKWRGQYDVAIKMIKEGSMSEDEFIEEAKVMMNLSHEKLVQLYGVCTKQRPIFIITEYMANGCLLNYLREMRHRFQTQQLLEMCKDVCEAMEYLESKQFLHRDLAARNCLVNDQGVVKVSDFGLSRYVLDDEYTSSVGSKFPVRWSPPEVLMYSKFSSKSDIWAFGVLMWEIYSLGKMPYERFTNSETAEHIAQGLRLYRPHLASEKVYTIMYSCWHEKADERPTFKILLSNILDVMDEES

With `C=CC(=O)Nc1ccccc1C1CCNc2c(C(N)=O)c(-c3ccc(OCc4ccccn4)c(Cl)c3)nn21` (stereo not drawn) [Compound 146, 7-(2-Acrylamidophenyl)-2-(3-chloro-4-(pyridin-2-ylmethoxy)phenyl)-4,5,6,7-tetrahydropyrazolo[1,5-a]pyrimidine-3-carboxamide], the IC50 was 1.3 nM.

For `C=CC(=O)Nc1cc(Cl)ccc1C1CCNc2c(C(N)=O)c(-c3ccc(OCC4CC4)cc3)nn21` (stereo not drawn) [Compound 147, 7-(2-Acrylamido-4-chlorophenyl)-2-(4-(cyclopropylmethoxy)phenyl)-4,5,6,7-tetrahydropyrazolo[1,5-a]pyrimidine-3-carboxamide], the IC50 came out at 2.7 nM. Turning to `C=CC(=O)Nc1cc(C)ccc1C1CCNc2c(C(N)=O)c(-c3ccc(OCC4CC4)cc3)nn21` (stereo not drawn) [Compound 148, 7-(2-Acrylamido-4-methylphenyl)-2-(4-(cyclopropylmethoxy)phenyl)-4,5,6,7-tetrahydropyrazolo[1,5-a]pyrimidine-3-carboxamide], the IC50 turned out to be 5.6 nM. In the case of `C=CC(=O)Nc1ccccc1C1CCNc2c(C(N)=O)c(-c3ccccc3)nn21` (stereo not drawn) [Compound 150, 7-(2-Acrylamidophenyl)-2-phenyl-4,5,6,7-tetrahydropyrazolo[1,5-a]pyrimidine-3-carboxamide], the IC50 was 4.7 nM. In the case of `C=CC(=O)Nc1ccccc1C1CCNc2c(C(N)=O)c(-c3ccc(F)c(Br)c3)nn21` (stereo not drawn) [Compound 152, 7-(2-Acrylamidophenyl)-2-(3-bromo-4-fluorophenyl)-4,5,6,7-tetrahydropyrazolo[1,5-a]pyrimidine-3-carboxamide], the half-maximal inhibitory concentration (IC50) was determined as 1.2 nM. Regarding `NC(=O)c1c(-c2ccc(F)c(Cl)c2)nn2c1NCCC2c1ccccc1NC(=O)/C=C/CN1CCCCC1` (stereo not drawn) [Compound 153, (E)-2-(3-Chloro-4-fluorophenyl)-7-(2-(4-(piperidin-1-yl)but-2-enamido)phenyl)-4,5,6,7-tetrahydropyrazolo[1,5-a]pyrimidine-3-carboxamide], the IC50 came to 6.1 nM.

Turning to `C=CC(=O)Nc1ccccc1C1CCNc2c(C(N)=O)c(-c3ccc(Cl)c(F)c3)nn21` (stereo not drawn) [Compound 154, 7-(2-Acrylamidophenyl)-2-(4-chloro-3-fluorophenyl)-4,5,6,7-tetrahydropyrazolo[1,5-a]pyrimidine-3-carboxamide], the IC50 amounted to 1.2 nM. For `C=CC(=O)Nc1ccccc1C1CCNc2c(C(N)=O)c(-c3cccc(Cl)c3)nn21` (stereo not drawn) [Compound 155, 7-(2-Acrylamidophenyl)-2-(3-chlorophenyl)-4,5,6,7-tetrahydropyrazolo[1,5-a]pyrimidine-3-carboxamide], the 50% inhibitory concentration (IC50) came out at 0.96 nM. `C=CC(=O)Nc1ccccc1C1CCNc2c(C(N)=O)c(-c3ccc(Cl)c(Cl)c3)nn21` (stereo not drawn) [Compound 156, 7-(2-Acrylamidophenyl)-2-(3,4-dichlorophenyl)-4,5,6,7-tetrahydropyrazolo[1,5-a]pyrimidine-3-carboxamide]: the half-inhibitory concentration (IC50) was 0.55 nM.

In the case of `C=CC(=O)Nc1ccccc1C1CCNc2c(C(N)=O)c(-c3ccc(F)c(C)c3)nn21` (stereo not drawn) [Compound 157, 7-(2-Acrylamidophenyl)-2-(4-fluoro-3-methylphenyl)-4,5,6,7-tetrahydropyrazolo[1,5-a]pyrimidine-3-carboxamide], the IC50 was 0.38 nM. For the compound `C=CC(=O)Nc1ccccc1C1CCNc2c(C(N)=O)c(-c3cc(F)c(F)c(Cl)c3)nn21` (stereo not drawn) [Compound 158, 7-(2-Acrylamidophenyl)-2-(3-chloro-4.5-difluorophenyl)-4,5,6,7-tetrahydropyrazolo[1,5-a]pyrimidine-3-carboxamide], the IC50 is 2.9 nM. Take `C=CC(=O)Nc1ccccc1C1CCNc2c(C(N)=O)c(-c3ccc(Cl)c(OC)c3)nn21` (stereo not drawn) [Compound 160, 7-(2-Acrylamidophenyl)-2-(4-chloro-3-methoxyphenyl)-4,5,6,7-tetrahydropyrazolo[1,5-a]pyrimidine-3-carboxamide]: the half-maximal inhibitory concentration (IC50) stood at 0.49 nM.
